Measurements reported in patent US20230210813A1, “METHODS AND PHARMACEUTICAL COMPOSITIONS FOR THE TREATMENT OF CHRONIC KIDNEY DISEASE” (INSERM (INSTITUTE NATIONAL DE LA SANTÉ ET DE LA RECHERCHE …, priority 2020, published 2023).

How the values were obtained:
[1] = fumarate salt; cited from earlier work
Ins2Akita mice (DKD) [2] = assay: DMAPT versus ramipril treatment of diabetic Ins2Akita mice (second series, FIG. 1); assay type: in vivo, mouse; conditions: for urinary albumin/creatinine ratio (ACR): 10 mg/kg/d for 2 months from 2 months of age, vs untreated DKD, FIG. 1A; for glomerular injury (PAS staining) / glomerular area / fibrosis (Masson trichrome staining) / glycemia / body weight: 10 mg/kg/d for 2 months; for glomerular injury (PAS staining): FIG. 1B; for glomerular area: FIG. 1C; for fibrosis (Masson trichrome staining): FIG. 1D; for glycemia: FIG. 1E; for body weight: FIG. 1F
Method: (§1) Male C57BL/6-Ins2Akita/J (Ins2Akita) and C57BL/6J (WT) mice (Charles River) were housed with unrestricted access to water and were maintained on a 12-h light-dark cycle in a pathogen-free environment on standard mouse chow. All experiments were conducted in accordance with the Guide for the care and use of laboratory animals of the National Institute of Health, eighth edition and the French Institute of Health guidelines for the care and use of laboratory animals. The project was approved by the local (Inserm/UPS US006 CREFRE) and national ethics committees (ethics committee for animal experiment, CEEA122; Toulouse, France; approval 02867.01).
(§2) In a first series of experiments, 2 months old mice were treated with or without ACEi ramipril (10 mg/kg/d in drinking water) for 2 months. In a second series of experiments 2 months old mice were treated with or without ACEi ramipril as in the first series or with dimethylaminoparthenolide monofumarate (DMAPT, 10 mg/kg/d by gavage) for 2 months. In each series of experiments, urine was collected in metabolic cages for 12 h, few days before sacrifice.
Right kidney cortexes were fixed in Carnoy's solution for 24 h, dehydrated in successive baths with increasing alcohol concentrations, embedded in paraffin and 2 μm sections were cut and mounted, and stained with either periodic acid-Schiff (PAS) or Masson trichrome. Stained sections were scanned using a Nanozoomer 2.0 RS (Hamamatsu Photonics SARL) and treated with the Morpho-expert image-analysis software (version 1.00, Explora Nova) for renal corpuscle surface quantification. At least 50 glomeruli including superficial and […] cortical area, were examined for each animal. The extent of glomerular injury was expressed as the percentage of glomerular area fraction occupied by PAS positive matrix^3.
(§3) Urinary albumin concentration was measured by ELISA using the AlbuWell kit (WAK-Chemie Medical GmbH, Steinbach, Germany). Urinary creatinine concentration was measured by the colorimetric method of Jaffe according to the protocol Creatinine Assay Kit (Bio Assay Systems). Blood glucose levels were measured in caudal blood from fasted awake mice using a glucometer (Glucometer Elite XL; Bayer Healthcare, Elkhart, Ind.).
(§4) Comparison between 2 groups of values was implemented using a two-tailed unpaired Welch's t-tests. Comparison between more than 2 groups, was implemented using an ordinary one-way ANOVA followed by Homl-Sidak's multiple comparisons test was used. P<0.05 was considered statistically significant. For the proteomic data the P values were adjusted for the false discovery rate (Benjamini-Hochberg).

[3] = cited from earlier work
[4] = test system: histone deacetylase (HDAC); conditions: independent of NF kappa B; cited from earlier work
[5] = test system: immune glomerulonephritis in rat; conditions: cited from earlier work
patients with cancer = conditions: Phase I, standardized doses; cited from earlier work
[6] = test system: NF kappa B transcription factor complex; conditions: cited from earlier work
[7] = test system: type 2 diabetic db/db mice; conditions: cited from earlier work
Ins2Akita mice (DKD) [8] = assay: Ramipril treatment of diabetic Ins2Akita mice (first series); assay type: in vivo, mouse
Method: as §1, §2, §3, §4

[9] = ramipril 10 mg/kg/d in drinking water for 2 months

Row | Compound | oral bioavailability [1] | urinary albumin/creatinine ratio (ACR) (Ins2Akita mice (DKD) [2]) | glomerular injury (PAS staining) (Ins2Akita mice (DKD) [2]) | glomerular area (Ins2Akita mice (DKD) [2]) | fibrosis (Masson trichrome staining) (Ins2Akita mice (DKD) [2]) | glycemia (Ins2Akita mice (DKD) [2]) | body weight (Ins2Akita mice (DKD) [2]) | water-solubility [3] | HDAC activity [4] | proteinuria and renal injury [5] | tolerability / dose-limiting toxicity (patients with cancer) | activity of the NF kappa B transcription factor complex [6] | renal inflammation and insulin resistance [7] | body weight (Ins2Akita mice (DKD) [8]; [9]) | glycemia (Ins2Akita mice (DKD) [8]; [9]) | ACR (Ins2Akita mice (DKD) [8]; ramipril 10 mg/kg/d in drinking water from 2 months of age for 2 months)
1 | C/C1=C/CC[C@@]2(C)O[C@@H]2[C@H]2OC(=O)[C@H](CN(C)C)[C@@H]2CC1 [DMAPT, (4E,8S)-8-[(dimethylamino)methyl]-2,3,6,7,7aS,8,10aS,10bR-octahydro-1aR,5-dimethyl-oxireno[9,10]cyclodeca[1,2-b]furan-9(1aH)-one] | orally bioavailable | significant reduction | significantly reduced | tended to reduce glomerular area without reaching significance | significantly reduced | Neither glycemia (FIG. 1E) nor body weight (FIG. 1F) were significantly influenced | Neither glycemia (FIG. 1E) nor body weight (FIG. 1F) were significantly influenced | water-soluble | inhibit histone deacetylase (HDAC) activity | – | – | – | – | – | – | –
2 | C=C1C(=O)O[C@@H]2[C@H]3O[C@]3(C)CC/C=C(\C)CC[C@@H]12 [parthenolide, (1aR,4E,7aS,10aS,10bR)-2,3,6,7,7a,8,10a,10b-octahydro-1a,5-dimethyl-8-methylene-oxireno[9,10]cyclodeca[1,2-b]furan-9(1aH)-one] | – | – | – | – | – | – | – | poor water-solubility | – | beneficial impact | well tolerated without dose-limiting toxicity | inhibiting the activity | able to alleviate renal inflammation and insulin resistance | – | – | –
3 | CCOC(=O)[C@H](CCc1ccccc1)N[C@@H](C)C(=O)N1[C@H](C(=O)O)C[C@@H]2CCC[C@@H]21 [ramipril] | – | significant reduction | no significant influence | no significant influence | no significant influence | Neither glycemia (FIG. 1E) nor body weight (FIG. 1F) were significantly influenced | Neither glycemia (FIG. 1E) nor body weight (FIG. 1F) were significantly influenced | – | – | – | – | – | – | no influence | slightly but significantly reduced | significantly reduced
